In patent US20220304952A1, “COMPOSITION COMPRISING METFORMIN HCI, VITAMIN B12 AND AT LEAST ONE FLOW ADDITIVE” (DSM IP ASSETS B.V., priority 2019, published 2022):
Where a name gives a salt, the structure may show the parent alone.

Legend:
[1] = Powder flowability: mass flow rate through an orifice (Pharmatest PTG-S4); assay type: physicochemical; settings: orifice inner diameter 15 mm; 100 g powder
Method: The powder flowability was determined with a Pharmatest PTG-S4 automated powder characterization instrument (Pharma Test Apparatebau AG, Hainburg, Germany). This system measures the flow behavior of granules and powders in compliance with the current EP <2.9.36/17> and USP <1174> pharmacopoeia as well as with the international ISO 4324 standards.
Mass flow rate (g/min) was determined via the method of flow through an orifice. Flow rate is interpreted as the time needed for a specified amount of powder (100 g) to flow through an orifice with different diameters. A free-flowing powder should be able to flow through the whole set of diameters 5, 7, 9, 10, and 15 mm. The plot of flow rate vs. orifice diameter is referred as flow curve. Three parallel measurements were performed to determine the flow rate.
Flowability of the two mixtures was then tested as described in Example 1.

[2] = Vitamin B12 content uniformity (RSD from HPLC assays); assay type: physicochemical; settings: tablets with 549.9 mg calcium phosphate anhydrous and 0.0078 mg vitamin B12
Method: “Uniformity of content” ensures that a consistent dose of an active pharmaceutical ingredient (e.g. of vitamin B12) is maintained in each portion of a composition, even if the composition is subdivided into a large number of very small portions. By way of example, when controlling the quality of e.g. capsules or tablets, uniformity of content is determined. To do so, multiple e.g. capsules or tablets are selected at random and a suitable analytical method is applied to assay the individual content of the active pharmaceutical ingredient in each capsule or tablet. The relative standard deviation (RSD) can then be calculated. The lower the RSD, the better the uniformity of content. An RSD of more than […] is clearly unacceptable. The term “uniformity of vitamin B12 content” is used when multiple solid pharmaceutical dosage forms are selected at random and a suitable analytical method is applied to assay the individual content of vitamin B12 in each solid pharmaceutical dosage form.
Tablets were compressed with a Korsch XL 100 rotary tableting machine (Korsch A G, Berlin, Germany) using an oblong punch of 22×9 mm and compression force of 20 kN.
Vitamin B12 content uniformity was then evaluated via the standard deviation RSD (%) calculated from 10 individual assay determinations (HPLC analysis conducted by Eurofins®, Germany).

Compound: CN(C)C(=N)N=C(N)N [metformin HCl]
- Flow rate, measured with orifice having the indicated inner diameter [1]: very low

Compound: cyanocobalamin [vitamin B12 crystals]
- vitamin B12 content uniformity rating [2]: extremely poor
